US11155580B2, “Modified proteins and methods of use thereof” (YALE UNIVERSITY, priority 2013, dated 2021)
Entries after “also recorded” stand apart in the source; their conditions may differ. Where a SMILES comes first, the peptide text is derived from it. Where no end group is shown, it is not given here. The star is where a group is joined. X1 = CCN(CC)c1ccc2c(-c3ccc(S(=O)(=O)*)cc3S(=O)(=O)[O-])c3ccc(=[N+](CC)CC)cc-3oc2c1; fluorescein = fluorescein label; rhodamine = not defined here

How the values were obtained:
cathepsin B = cathepsin B (Homo sapiens, UniProt P07858); assay: Resistance to acid proteases: cathepsin B; assay type: in vitro ADME; conditions: 50 pmol, 30 min, 37° C., pH 5
Protocol: (§1) 50 pmol aPPR, 5.2R, 5.3R, ZF5.3R, TatR (SEQ ID NO:67), or Arg8R (SEQ ID NO:68) were incubated with 5 pg cathepsin B, D, or L for 30 min at 37° C. in 10 μL of 20 mM sodium phosphate buffer (pH 5) containing 150 mM NaCl. At the end of the incubation, the reaction was stopped by adding 40 μL of a solution containing a 84:15:1 ratio of water:EtOH:TFA before analysis by HPLC.

HeLa cells [1] = assay: Effects of endocytosis inhibitors on cell uptake, confocal microscopy; assay type: cell-based; conditions: 1 μM rhodamine labeled, 30 min, 37° C.; for effect of EIPA on uptake: 50 μM EIPA; for effect of dynasore on uptake: 80 μM dynasore; for effect of MβCD on uptake: 5 mM MβCD
Protocol: HeLa cells grown for 24 h in glass bottom plates were incubated with HKR buffer, or HKR buffer containing 80 μM dynasore, 50 μM N-ethyl-isopropyl-amiloride, or 5 mM methyl-β-cyclodextrin for 30 min at 37° C. prior to the addition of 1 μM rhodamine-labeled miniature protein or peptide (Tat (SEQ ID NO:67) and Arg8 (SEQ ID NO:68)). The cells were washed twice with DMEM, the nuclei labeled with Hoescht, and images acquired as described above for colocalization experiments.

HeLa cells [2] = assay: Peptide degradation in HeLa cells, HPLC of whole cell lysates; assay type: in vitro ADME; conditions: 1 μM, 30 min, RIPA lysate
Protocol: Approximately 200,000 HeLa cells were treated with rhodamine labeled cationic miniature proteins and peptides as described for experiments using flow cytometry to measure peptide uptake. These cells were pelleted in 96 well microtitre plates (300 g, 3 min) and lysed in 40 μL RIPA buffer (150 mM NaCl, 50 mM Tris pH 7.4, 50 mM EDTA pH 7.4, 0.1% SDS, 1% Triton X-100) on ice for 30 min. The insoluble material was cleared from the cell lysate via centrifugation (10,000 g, 10 min) and 20 μL of the supernatant was diluted into 400 μL of 15% CH3CN in water. These samples were analyzed via reverse phase HPLC (Shimadzu Instruments) fitted with a fluorescence detector and a C18 column (Poroshell 120 SB-C18, 2.7 μm, 100 mm×3 mm ID, Agilent).

HeLa cells [3] = assay: Colocalization with Alexa-488-transferrin (Tf488), live cell confocal microscopy; assay type: cell-based; conditions: 1 μM, 30 min
Protocol: To examine the colocalization of rhodamine labeled miniature proteins or peptides with Alexa-488-transferrin (Tf488), HeLa cells were plated (200 μl, 10^4 cells/well, 96 well glass bottom plates, Matrical) the day prior to experiments. The media was replaced with 150 μL Hepes-Krebs-Ringer's (HKR) buffer (140 mM NaCl, 2 mM KCl, 1 mM CaCl2, 1 mM MgCl2, 10 mM Hepes pH 7.4) containing 1 μM miniature protein or 25 nM Alexa-488-transferrin (Molecular Probes) and the cells incubated at 37° C. for 30 min. The cells were then rinsed twice with 200 μL, HKR buffer and nuclei were labeled by overlaying 200 μL HKR containing 300 nM Hoechst 33342 (Molecular Probes Cat. # H3570) for 5 minutes. Images of cells were acquired using a PerkinElmer LiveView spinning disk confocal microscope fitted with a 60×1.2 NA objective. Colocalization with Rab-GFP fusions was examined in an analogous way using HeLa cells transfected with the appropriate expression plasmid.
Colocalization between rhodamine and fluorescein labeled miniature proteins and peptides, or between rhodamine labeled miniature proteins and markers of endocytosis was completed using confocal microscopy. Live cell confocal microscopy was conducted using a PerkinElmer LiveView spinning disk confocal microscope fitted with heated microscope enclosure (maintained at 37° C.), a 60×1.2 NA objective, laser illumination, a Nipkow CSU-1× spinning disk, and a Hammamatsu CS9100 EMCCD camera operated using Velocity software. Alexafluor-488-transferrin was detected using a 488 nm laser and a 520 nm long pass filter; tetraethylrhodamine and Alexafluor-546-transferrin were detected using a 546 nm laser line and a 580 nm long pass filter, Hoescht 33342 was detected using a 405 nm laser line and a 450 nm long pass filter. Images were processed for presentation by using the ‘subtract background’ option and linear contrast adjustments in Image J. All adjustments were applied uniformly to the entire image. Colocalization analysis was performed using the JACOP plugin (Bolte and Cordelières, 2006), available on the ImageJ website. The fraction of rhodamine signal overlapping with EGFP signal (R E G) was calculated using Mander's coefficient and automatic thresholding. Pearson's correlation coefficient (R) was also obtained using the JACOP plugin.

cathepsin L = cathepsin L (Homo sapiens, UniProt P07711); assay: Resistance to acid proteases: cathepsin L; assay type: in vitro ADME; conditions: 50 pmol, 30 min, 37° C., pH 5
Protocol: as §1

cathepsin D = cathepsin D (Homo sapiens, UniProt P07339); assay: Resistance to acid proteases: cathepsin D; assay type: in vitro ADME; conditions: 50 pmol, 30 min, 37° C., pH 5
Protocol: as §1

HeLa cells [4] = assay: HPLC analysis of cytosolic extracts prepared with streptolysin O; assay type: cell-based; conditions: HeLa cells treated with rhodamine labeled molecule
Protocol: To generate cytosolic extracts, HeLa cells were treated with streptolysin O (SLO), a well characterized bacterial toxin that creates pores in the plasma membranes of target cells (Walev et al., 2002, FASEB 16:237-239). […] Moreover, when the toxin is added to cultured cells at 4° C. and washed with PBS before raising the temperature to 37° C., pores are created only in the plasma membrane and the release of ER, golgi, or endolysosomal contents are avoided (Androlewicz et al., 1993, Proc Natl Acad Sci USA 90:9130-9134).
First, selective release of the cytoplasmic contents of HeLa cells using the published procedures was verified. HeLa cells were treated with 20 μg/mL SLO in PBS containing 5 mM DTT (20 min, 4° C.), washed (three PBS washes, 150 μL each), resuspended in PBS, and incubated at 37° C. for 15 min, after which 1.5 μM propidium iodide (PI), a marker of permeabilized cell membranes, was added.

HeLa cells [5] = assay: Colocalization of rhodamine and fluorescein labeled miniature proteins and peptides; assay type: cell-based; conditions: 1 μM each, 30 min, 37° C.
Protocol: HeLa cells were treated with a mixture of rhodamine—(indicated by the superscript R) and fluorescein—(indicated by the superscript F)—labeled miniature protein or peptide (1 μM each) for 30 min at 37° C., washed, and then imaged using confocal microscopy. […] The remaining molecules show high fluorescence, and molecules sharing the same sequence (but different labels) show high degrees of overlap, with R>0.68. The amino acid sequence of Arg8 is provided in SEQ ID NO:68.
Colocalization between rhodamine and fluorescein labeled miniature proteins and peptides, or between rhodamine labeled miniature proteins and markers of endocytosis was completed using confocal microscopy. […] Alexafluor-488-transferrin was detected using a 488 nm laser and a 520 nm long pass filter; tetraethylrhodamine and Alexafluor-546-transferrin were detected using a 546 nm laser line and a 580 nm long pass filter, Hoescht 33342 was detected using a 405 nm laser line and a 450 nm long pass filter. […] The fraction of rhodamine signal overlapping with EGFP signal (R E G) was calculated using Mander's coefficient and automatic thresholding. […]

[6] = Circular dichroism thermal melt; assay type: physicochemical; conditions: unlabeled, 25 μM in PBS
Protocol: FIG. 8, comprising FIGS. 8A-8C, depicts the results of circular dichroism (CD) analysis of miniature proteins studied herein. (FIG. 8A) Wavelength dependent CD spectra of miniature proteins at 25 μM concentration in PBS at 37° C. (FIG. 8B) Temperature dependent ellipticity at 222 nm of miniature proteins at 25 μM.
CD spectra of unlabeled aPP-based miniature were recorded from samples containing 25 μM peptide in PBS as described (Luedtke et al., 2007, Nat Chem Biol. 3:779-784). CD spectra of ZF and ZF5.3 in the presence and absence of Zn2+ were recorded from solutions of peptide (12.5-25 μM) dissolved in 10 mM argon-purged Tris-HCL (pH 8.0) in the presence or absence of 0.5 mM dithiothreitol and 2 eq. ZnC12. Samples were incubated for 30 min at RT and analyzed on a Jasco J-810-150S spectropolarimeter. Final plots show background-normalized averages of six scans.

GR★-GFP = assay: GIGT, transient transfection with GR★-GFP; assay type: cell-based; conditions: 500 nM, 30 min, HeLa cells
Protocol: Cells were plated (10,000 cells/well) onto 96-well glass bottom plates (Matrical Bioscience, #MGB096-1-2-LG-L) in full DMEM (HeLa) or full McCoy's 5A (U205) media and allowed to adhere overnight. […] Cells were allowed to transfect for 6 h at 37° C. under 5% CO2 before removing transfection media and replenishing growth media. Image analysis of GIGT using Cell Profiler. Cell image files were loaded into a customizable CellProfiler7 ‘pipeline’ as individual GFP (green) and Hoechst (blue) channels, and converted to grayscale. Nuclei were identified and segmented from the gray Hoechst channel based on Otsu three-class thresholding, with pixels in the middle intensity class assigned to background. Clumped objects were individually distinguished using ‘Laplacian of Gaussian’ modeling and separated by ‘shape’. […] The ratio of mean intensities of the nuclear region divided by the cytosolic region of the GFP image was measured for every cell examined, and 40-80 transfected cells from 15-25 images were acquired for each treatment.
Cells were allowed to incubate in the presence of ligand for 30 min at 37° C. under 5% CO2. […] Fluorescence illumination was initiated using an EXFO X-cite Series 120 Hg arc lamp. […] Fluorescence intensities of individual cells were quantified using the image analysis algorithm CellProfiler.

cathepsin D, sequence (P07339 65-412, species assumed): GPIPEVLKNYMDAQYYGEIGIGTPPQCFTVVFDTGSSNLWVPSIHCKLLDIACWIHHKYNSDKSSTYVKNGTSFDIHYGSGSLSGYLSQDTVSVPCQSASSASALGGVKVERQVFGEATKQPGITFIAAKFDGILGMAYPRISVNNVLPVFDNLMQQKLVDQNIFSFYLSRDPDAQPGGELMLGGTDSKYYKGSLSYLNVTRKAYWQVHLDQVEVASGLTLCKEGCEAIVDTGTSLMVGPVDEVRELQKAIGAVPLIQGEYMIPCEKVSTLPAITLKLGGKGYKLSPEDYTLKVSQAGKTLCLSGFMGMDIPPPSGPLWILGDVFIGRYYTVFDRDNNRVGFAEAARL
cathepsin L, sequence (P07711 114-333, species assumed): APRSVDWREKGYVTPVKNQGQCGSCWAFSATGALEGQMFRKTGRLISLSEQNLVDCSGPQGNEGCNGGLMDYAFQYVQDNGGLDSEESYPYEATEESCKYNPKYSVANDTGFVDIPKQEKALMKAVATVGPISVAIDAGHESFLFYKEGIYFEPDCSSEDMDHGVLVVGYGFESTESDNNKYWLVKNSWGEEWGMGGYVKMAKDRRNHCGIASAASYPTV

## K^RhodGRKKRRQRRRPPQY-NH2 (K(rhodamine)GRKKRRQRRRPPQY-NH2; reading uncertain; also: printed as K^RhodGRKKRRQRRRPPQY-NH2) [TatR]
Cathepsin B
  degradation by cathepsin B (HPLC): little or no degradation
HeLa cells [1]
  effect of EIPA on uptake: dramatically reduced the uptake
  effect of dynasore on uptake: completely blocked the uptake
  effect of MβCD on uptake: completely blocked the uptake
HeLa cells [2]
  degradation during incubation with HeLa cells (HPLC of whole cell lysates): numerous additional peaks
HeLa cells [3]
  intracellular red fluorescent signal: red fluorescent puncta throughout the cytosol
Cathepsin L
  degradation by cathepsin L (HPLC): little or no degradation
Cathepsin D
  degradation by cathepsin D (HPLC): little or no degradation
HeLa cells [4]
  material found in SLO cytoplasmic extracts (HPLC): retention times distinct from the starting material; also recorded: little or no material with the same retention time as the starting material

## K^RhodGPSQPTYPGDDAPVEDLIRFYNDLQQYLNVVTRHRY-NH2 (K(rhodamine)GPSQPTYPGDDAPVEDLIRFYNDLQQYLNVVTRHRY-NH2; reading uncertain; also: printed as K^RhodGPSQPTYPGDDAPVEDLIRFYNDLQQYLNVVTRHRY-NH2) [aPPR]
HeLa cells [3]
  intracellular red fluorescent signal: little or no red fluorescent signal
HeLa cells [5]
  cell fluorescence: low fluorescence
HeLa cells [4]
  material found in SLO cytoplasmic extracts (HPLC): little to no fluorescent material; also recorded: little or no aPPR is observed

## GPSQPTYPGDDAPVEDLIRFYNDLQQYLNVVTRHRYC^FLU-NH2 (GPSQPTYPGDDAPVEDLIRFYNDLQQYLNVVTRHRYC(fluorescein)-NH2) [aPPF]
HeLa cells [5]
  cell fluorescence: low fluorescence

## CC[C@H](C)[C@H](NC(=O)[C@H](CC(C)C)NC(=O)[C@H](CC(=O)O)NC(=O)[C@H](CCCNC(=N)N)NC(=O)[C@@H](NC(=O)[C@@H]1CCCN1C(=O)[C@H](C)NC(=O)[C@H](CC(=O)O)NC(=O)[C@H](CC(=O)O)NC(=O)CNC(=O)[C@@H]1CCCN1C(=O)[C@H](Cc1ccc(O)cc1)NC(=O)[C@@H](NC(=O)[C@@H]1CCCN1C(=O)[C@H](CCC(N)=O)NC(=O)[C@H](CO)NC(=O)[C@@H]1CCCN1C(=O)CNC(=O)[C@@H](N)CCCCNS(=O)(=O)c1ccc(-c2c3ccc(=[N+](CC)CC)cc-3oc3cc(N(CC)CC)ccc23)c(S(=O)(=O)[O-])c1)[C@@H](C)O)C(C)C)C(=O)N[C@@H](CCCNC(=N)N)C(=O)N[C@@H](Cc1ccccc1)C(=O)N[C@@H](Cc1ccc(O)cc1)C(=O)N[C@@H](CCCNC(=N)N)C(=O)N[C@@H](CC(=O)O)C(=O)N[C@@H](CC(C)C)C(=O)N[C@@H](CCCNC(=N)N)C(=O)N[C@@H](CCCNC(=N)N)C(=O)N[C@@H](Cc1ccc(O)cc1)C(=O)N[C@@H](CC(C)C)C(=O)N[C@@H](CC(N)=O)C(=O)N[C@H](C(=O)N[C@H](C(=O)N[C@H](C(=O)N[C@@H](CCCNC(=N)N)C(=O)N[C@@H](Cc1c[nH]cn1)C(=O)N[C@@H](CCCNC(=N)N)C(=O)N[C@@H](Cc1ccc(O)cc1)C(N)=O)[C@@H](C)O)C(C)C)C(C)C [5.3R] (H-K(X1)GPSQPTYPGDDAPVRDLIRFYRDLRRYLNVVTRHRY-NH2)
Cathepsin B
  degradation by cathepsin B (HPLC): several additional small peaks
HeLa cells [1]
  effect of EIPA on uptake: dramatically reduced the uptake
  effect of dynasore on uptake: completely blocked the uptake
  effect of MβCD on uptake: completely blocked the uptake
HeLa cells [2]
  degradation during incubation with HeLa cells (HPLC of whole cell lysates): minimal to no cleavage; also recorded: virtually identical to control samples
HeLa cells [3]
  intracellular red fluorescent signal: red fluorescent puncta throughout the cytosol
Cathepsin L
  degradation by cathepsin L (HPLC): traces identical to the parent peptide; also recorded: to a smaller extent
Cathepsin D
  degradation by cathepsin D (HPLC): cleaved by cathepsin D
Cathepsin D; isolated enzyme cathepsin other, read-out: disappearance after incubation with cathepsin D
  metabolised at 0.5 h: ~50%
HeLa cells [4]
  material found in SLO cytoplasmic extracts (HPLC): presence of intact 5.3R; also recorded: a single peak with the same retention time as the starting material

## GPSQPTYPGDDAPVRDLRRFYRDLRRYLNVVTRHRYC^acetyl-NH2 (GPSQPTYPGDDAPVRDLRRFYRDLRRYLNVVTRHRYC(Ac)-NH2) [6.3]
[6]
  Tm (temperature dependent ellipticity at 222 nm): 33 °C

## K^DexGPSQPTYPGDDAPVRDLIRPYRDLRRPLNVVTRHRY (K(dexamethasone)GPSQPTYPGDDAPVRDLIRPYRDLRRPLNVVTRHRY-NH2) [5.3-P2Dex]
GR★-GFP
  translocation ratio (TR), GR★-GFP: 1.64±0.27

## K^DexGPSQPTYPGDDAPVRDLIRPYRDLQRPLRVVTRHRY (K(dexamethasone)GPSQPTYPGDDAPVRDLIRPYRDLQRPLRVVTRHRY-NH2) [5.2-P2Dex]
GR★-GFP
  translocation ratio (TR), GR★-GFP: 1.35±0.11
